# Read-outs that look alike come from different tables or passages of the source.
# How the values were obtained:
# [1] = test system: EAE mice (wild type or Wlds); assay: Mouse EAE model, subcutaneous nicotinamide (Example 9 end, Example 12); assay type: in vivo; settings: for reduction of neural degeneration in EAE mice: daily from day of MOG immunization
# Description: In initial experiments, we administered nicotinamide daily starting from the day of immunization by MOG peptide, and found efficacy in both 125 mg/kg and 500 mg/kg treatment groups. We have also examined groups of mice wherein initiation of nicotinamide administration was delayed until 10 days after the immunization by MOG peptide (delayed treatment group), to better model clinical conditions wherein patients typically begin treatment after onset of pathogenic autoimmunity.
# In this example we administered NAm by daily subcutaneous injection at two different dosages (125 or 500 mg/kg, dissolved by PBS) starting from the day of MOG immunization. As a control, we administered the same volume of PBS into either wild type or Wld^s mice. The EAE models were induced following essentially the procedure described in Kalyvas et al (2004, Neuron 41, 323-335). Other protocols were adapted from Wang, et al. (2005) J. Cell. Biol. 170: 349-355.
# We started treatments with NAm (500 mg/kg, daily subcutaneous injection) from 10 days P.I. when most of the animals already have clear clinical symptoms.
# [2] = test system: SOD1-G93A transgenic mice; assay type: in vivo; settings: for reduction of neural degeneration in ALS mice, behavioral testing: subcutaneous, daily from 10 weeks from birth
# [3] = test system: transected axons from cultured dorsal root ganglia (DRG); assay: HPLC measurement of NAD and ATP levels in degenerating axons of cultured DRG; assay type: cell-based
# Description: (§1) As a first step in examining the role of NAD in Wallerian degeneration, we used an ultra-sensitive high-performance liquid chromatography (HPLC) method (Micheli and Sestini, 1997) to measure the concentration of NAD and its derivatives in degenerating axons. To do this, the acidic lysates were prepared from axonal segments collected at different time points after transecting the axons from cultured dorsal root ganglia (DRG) and resolved by reverse-phase chromatography. 2 hr after axotomy, when the transected axons were still morphologically indistinguishable from their uncut controls, NAD levels began to decrease. This NAD decrease continued over the course of degeneration, reaching about 50% at 4 hr post-axotomy, to almost undetectable levels by 6 hr after axotomy, when early morphological signs of degeneration began to develop. […] By a similar approach of alkaline extraction (Micheli and Sestini, 1997), it has been difficult for us to detect NADH in the axonal extracts, presumably due to the low abundance of NADH and the high NAD/NADH ratio reported in mammalian cells (Zhang et al., 2002, Kasischke et al., 2004, Kannurpatti et al., 2004).
# In addition to acting as co-factors for Sirt1 and other NAD-dependent enzymes, NAD is also essential for ATP-synthesizing redox reactions which are involved in glycolysis and oxidative phosphorylation (Shibata et al., 1991). […]
# [4] = test system: cultured DRG neurons (transected axons); assay: Axon degeneration after transection of axons of cultured DRG neurons (Wallerian degeneration); assay type: cell-based; settings: sirturin inhibitors; nicotinamide at 50 μM
# Description: as §1
# To definitively determine whether preventing the local decrease in NAD levels could mediate axon protection, we employed soma-free axonal segments that have been separated from their soma as models to examine the protective effects of different pharmacological treatments. It has been shown that exogenously provided NAD, when directly added to the culture medium of DRG neurons, can be transported across the axonal membrane (Araki et al., 2004). Thus, we first examined the protective effects of different concentrations of NAD added to the culture before or after axon transection and removal of ganglia.
# To further assess the local and nuclear contribution to such an NAD-dependent protection, we compared the protective effects of NAD provided at different time points. […] In this respect, our results are inconsistent with those shown by Araki et al (2004), possibly due to the different concentrations of NAD used in our studies (1-20 mM) and by Araki et al (0.1 to 1 mM).
# We next attempted to explore the possible mechanisms underlying this local NAD-dependent axon protection. […] A possible explanation for this discrepancy between Araki et al (2004) and our results is the different approaches used to block Sirt1 activity. […] It is known that […], other sirturins exist and some of these proteins are localized in the cytoplasmic compartment (Onyango et al., 2002; North et al., 2003).
# [5] = 500 mg/kg daily s.c. from 10 days P.I.
# [6] = SOD1-G93A, nicotinamide diet from 7 wk of age
structure (smiles),measurement,setting,value
"NC(=O)c1cccnc1 [nicotinamide, 3-pyridinecarboxamide]","NAD levels, delayed treatment",[1]; [5],increased NAD levels effectively
same,"further development of EAE symptoms, delayed treatment",[1]; [5],efficiently attenuated further development of EAE symptoms
same,"number of degenerating axons, delayed treatment","[1]; 500 mg/kg daily s.c. from 10 days P.I., 8 weeks P.I.",significantly reduced the number of degenerating axons
same,degenerating axons detected compared with untreated animals,"[1]; Wlds mice, high dose",~5%
same,effect on EAE symptoms,"[1]; Wlds mice, high dose 500 mg/kg",More dramatic improvements
same,NAD levels at 2 and 4 weeks P.I.,"[1]; Wlds mice, high dose (500 mg/kg) s.c.",remained at high levels
same,axons remaining morphologically intact (Toluidine Blue),"[1]; Wlds mice, high dose, 8 weeks P.I.",~90%
same,NAD levels at 2 weeks P.I.,[1]; daily s.c. 125 or 500 mg/kg from day of MOG immunization,dramatically increased NAD levels in a dose-dependent manner
same,reduction of neural degeneration in EAE mice,"[1]; subcutaneous, 125 mg/kg",efficacy
same,reduction of neural degeneration in EAE mice,"[1]; subcutaneous, 500 mg/kg",efficacy
same,"neural degeneration versus matched controls, delayed treatment group","[1]; subcutaneous, started 10 days after MOG immunization",reduced neural degeneration
same,axons in peripheral regions of the spinal cord,"[1]; wild type EAE mice, high dose",increased numbers of demyelinated but preserved axons
same,numbers of SMI-32-positive axons,"[1]; wild type and Wlds mice, 2, 4 and 8 weeks P.I.",significantly reduced numbers
same,onset and development of EAE symptoms,"[1]; wild type mice, 125 or 500 mg/kg s.c. daily",ameliorated the onset and development of EAE symptoms in a dose-dependent manner
same,NAD levels at 4 weeks P.I.,"[1]; wild type mice, continuous daily s.c. administration",returned to near-normal levels
same,degenerating axons detected compared with untreated animals,"[1]; wild type mice, high dose",approximately 10%
same,effect on EAE onset and severity,"[1]; wild type mice, high dose 500 mg/kg",significant improvement
same,axons remaining morphologically intact (Toluidine Blue),"[1]; wild type mice, high dose, 8 weeks P.I. (control wild type EAE 25%)",approximately 70%
same,age at bilateral hindlimb paralysis,"[2]; SOD1-G93A, both normal diet and nicotinamide diet",127-157 days of age
same,age through to which walking capacity is improved (grid walking test),"[2]; SOD1-G93A, nicotinamide diet",124 days of age
same,age through to which motor functions are preserved (Rotarod),"[2]; SOD1-G93A, nicotinamide diet (control diet onset 108 days)",120 days of age
same,"onset of impairment in balance, coordination and muscle strength (Rotarod)",[2]; [6],significantly delays the onset of impairment
same,walking capacity (grid walking test),[2]; [6],significantly improves walking capacity
same,Rotarod performance score (latency),"[2]; mouse, in vivo",180 s
same,body condition scoring (BCS),"[2]; mouse, in vivo",3
same,foot miss scores (grid walking test),"[2]; mouse, in vivo",0
same,"general health and neurologic status (lacrimation/salivation, eye blink, ear twitch, pupillary response, whisker orienting reflex)","[2]; mouse, in vivo",no obvious differences
same,"reduction of neural degeneration in ALS mice, behavioral testing",[2]; 125 mg/kg,efficacy
same,"reduction of neural degeneration in ALS mice, behavioral testing",[2]; 500 mg/kg,efficacy
same,axonal NAD levels after transection (HPLC),[3]; exogenously applied,delayed the decrease of axonal NAD levels
same,ATP levels in transected axons separated from their somas,[3]; exogenously provided,delayed the decrease of ATP levels
same,attenuation of the protective effect of Nmnat1 or NAD,[4],did not attenuate the protective effect
